In US20250290117A1, “MOLECULAR PHENOTYPIC ANTIMICROBIAL SUSCEPTIBILITY TESTING” (priority 2024, published 2025):

Legend:
[1] = tested on: pathogen of the specimen; experiment: Traditional culture-based antimicrobial susceptibility test (comparison of Table 7); format: cell-based; settings: E. coli isolate 1189
Procedure: Table 7 illustrates the results of an example antimicrobial agent susceptibility test of the current application versus a traditional culture-based antimicrobial agent susceptibility test at multiple incubation timepoints, in accordance with one or more embodiments of the disclosure. These specimens were tested with direct PCR (e.g., no extraction DNA purification step prior to PCR). […] Result Reporting to Healthcare Providers. The results from the antimicrobial exposure are reported to the ordering healthcare provider. This information can be utilized by the healthcare provider when selecting an antimicrobial regimen for their individual patient based on these individual specimen results and patient specific factors. […] The current standard of care for antimicrobial susceptibility testing involves the growth, isolation, and exposure of pathogens to antimicrobials. This traditional culture and sensitivity process can take multiple days to obtain results, limiting the ability of healthcare providers to receive timely results to make actionable changes in patient care or management. Healthcare providers desire a method to obtain antimicrobial susceptibility results with quicker turn-around-time. This application discloses a molecular-based phenotypic antimicrobial susceptibility method which involves pathogen exposure to a panel of antimicrobial agents at their specified minimum inhibitory concentration breakpoints for sensitivity. This method allows for more timely antimicrobial susceptibility results.

[2] = tested on: Staphylococcus epidermidis; experiment: Molecular phenotypic antimicrobial susceptibility test (semi-quantitative PCR after antimicrobial exposure; extraction/DNA purification prior to PCR); format: cell-based
Procedure: (§1) Detection of Molecular Phenotypic Antimicrobial Susceptibility. Disclosed herein are the methods for the detection of phenotypic antimicrobial susceptibility via molecular methods. The present invention describes how a specimen 100 with a known microbial load is incubated and then exposed to a panel of antimicrobial agents to determine sensitivity (prevention of growth) or resistance (allowance of growth) to the specific antimicrobial agents tested utilizing molecular methods.
(§2) Sample Collection. Specimens 100 are collected from patients using sterile collection processes that are employed in routine clinical care. Specimens are transported to the testing facility in boric acid preservative. Specimens 100 are subsequently divided into a first sample 104 and a second sample 108.
(§3) Preparation of the Specimens for Testing. The specimens 100 are put through a pathogen identification process using PCR technology (e.g., using the first sample 104). The process for pathogen isolation includes steps of harvesting the pathogen (e.g., via centrifugation), isolating pathogen DNA via a DNA isolation and/or purification kit, and performing PCR on the pathogen DNA via PCR components (e.g., primers, enzymes, buffers) as would be known to the skilled artisan. Simultaneously, an additional aliquot of the same specimen (e.g., the second sample 108) is placed with liquid culture media and incubated for 4-6 hours. This aliquot is used for antimicrobial susceptibility testing if indicated based on the pathogen detection results. After pathogen identification is completed and if more than 10,000 cells/mL of bacteria (e.g., eligible bacteria) are detected in the source specimen, the second sample 108 then enters the antimicrobial susceptibility phase of testing. Specimens 100 with lower pathogen loads could also be utilized in the antibiotic susceptibility phase of testing with or without a longer incubation period.
(§4) Preparation of Antimicrobial Susceptibility Testing Plates. Antimicrobial solutions are prepared at known concentrations. The specific antimicrobials and their concentrations are selected based on the pathogen of interest and the described antimicrobial resistance breakpoints for that specimen pathogen and antimicrobial combination. These antimicrobials have been selected based on those commonly utilized by healthcare providers in routine clinical care for the specific type of suspected infection. The number and types of antimicrobials utilized can be customized based on the infection source, pathogen detected, patient-specific factors such as allergies or other health conditions (e.g., chronic kidney disease or concurrent medication use), or healthcare provider preferences such as antimicrobial availability or cost.
(§5) The antimicrobial solutions are prepared in liquid culture media (such as Muller Hinton Broth) to achieve the desired antimicrobial concentration and are then stored at −80° C. until use. For a given specimen, each antimicrobial is tested at a single or multiple antimicrobial concentration(s) which is its established breakpoints for sensitivity. The antimicrobial solutions are prepared and plated out for each specific pathogen. This allows ease of use on the day of testing after defrosting the plate 112. Table 1, which illustrates the results of molecular phenotypic antimicrobial susceptibility testing when more than one organism is present in the source specimen, provides an example of an antimicrobial plate 112 prepared for this purpose. Of note, control wells containing only culture media are present on all plates 112. This allows for evaluation of pathogen load when no antimicrobial is present.
(§6) Specimen Exposure to Antimicrobial Agents. The 1 mL aliquot of the specimen 100 previously mixed with culture media and incubated is obtained. Using optical density measurements as a guide, the specimen 100 is diluted to 0.5 McFarland. […]

[3] = tested on: P. aeruginosa; experiment: Molecular phenotypic antimicrobial susceptibility test with direct PCR (no extraction DNA purification step); format: cell-based, Pseudomonas aeruginosa; settings: for Ct at Sensitive Breakpoint: P. aeruginosa isolate MRSN1938, Ct at control (average) 12.031; for Molecular Antimicrobial Susceptibility Result: P. aeruginosa isolate MRSN1938, at sensitive breakpoint
Procedure: as §1, §2, §3, §4, §5, §6

[4] = tested on: P. aeruginosa; experiment: Traditional culture-based antimicrobial susceptibility test; format: cell-based, Pseudomonas aeruginosa; settings: P. aeruginosa isolate MRSN1938
Procedure: (§7) Table 5 illustrates the results of an example antimicrobial agent susceptibility test of the current application versus a traditional culture-based antimicrobial agent susceptibility test for multiple specimens with different pathogens, in accordance with one or more embodiments of the disclosure. These specimens were tested with direct PCR (e.g., no extraction DNA purification step prior to PCR). As in Tables 1, 2, and 3, the results of the test of the current application are similar to the results from the traditional test.
(§8) Result Reporting to Healthcare Providers. The results from the antimicrobial exposure are reported to the ordering healthcare provider. This information can be utilized by the healthcare provider when selecting an antimicrobial regimen for their individual patient based on these individual specimen results and patient specific factors. […] The current standard of care for antimicrobial susceptibility testing involves the growth, isolation, and exposure of pathogens to antimicrobials. This traditional culture and sensitivity process can take multiple days to obtain results, limiting the ability of healthcare providers to receive timely results to make actionable changes in patient care or management. Healthcare providers desire a method to obtain antimicrobial susceptibility results with quicker turn-around-time. This application discloses a molecular-based phenotypic antimicrobial susceptibility method which involves pathogen exposure to a panel of antimicrobial agents at their specified minimum inhibitory concentration breakpoints for sensitivity. This method allows for more timely antimicrobial susceptibility results.

[5] = tested on: S. aureus; experiment: as above; format: cell-based, Staphylococcus aureus; settings: S. aureus isolate NR-46412 HIP13170
Procedure: as §7, §8

[6] = S. epidermidis isolate 1, Ct at control (average) 10.611
[7] = S. epidermidis isolate 1, at sensitive breakpoint
[8] = S. epidermidis isolate 2, Ct at control (average) 11.861
[9] = S. epidermidis isolate 2, at sensitive breakpoint
[10] = S. epidermidis isolate 3, Ct at control (average) 12.941
[11] = S. epidermidis isolate 3, at sensitive breakpoint
[12] = S. epidermidis isolate 4, Ct at control (average) 11.861
[13] = S. epidermidis isolate 4, at sensitive breakpoint
[14] = S. epidermidis isolate 5, Ct at control (average) 12.941
[15] = S. epidermidis isolate 5, at sensitive breakpoint

For `CC1(C)S[C@@H]2[C@H](NC(=O)[C@H](N)c3ccccc3)C(=O)N2[C@H]1C(=O)O` [Ampicillin], the “Traditional Culture Result” value [1] was “Resistant”.
With `Cc1nnc(SCC2=C(C(=O)O)N3C(=O)[C@@H](NC(=O)Cn4cnnn4)[C@H]3SC2)s1` [Cefazolin] the “Traditional Culture Result” value [1] was “Resistant”.
For `CO/N=C(\C(=O)N[C@@H]1C(=O)N2C(C(=O)[O-])=C(C[N+]3(C)CCCC3)CS[C@H]12)c1csc(N)n1` [Cefepime], the “Ct at Sensitive Breakpoint” value [2, 6] was 11.785, the “Molecular Antimicrobial Susceptibility Result” value [2, 7] was “Resistant” and the “Ct at Sensitive Breakpoint” value [2, 8] was 8.669. For the same compound, the “Molecular Antimicrobial Susceptibility Result” value [2, 9] was “Resistant”, the “Ct at Sensitive Breakpoint” value [2, 10] was 8.646 and the “Molecular Antimicrobial Susceptibility Result” value [2, 11] was “Resistant”. The “Ct at Sensitive Breakpoint” value [2, 12] was 8.418, the “Molecular Antimicrobial Susceptibility Result” value [2, 13] was “Resistant” and the “Ct at Sensitive Breakpoint” value [2, 14] was 8.474. For the same compound, the “Molecular Antimicrobial Susceptibility Result” value [2, 15] was “Resistant”, the “Ct at Sensitive Breakpoint” value [3] was 13.373 and the “Molecular Antimicrobial Susceptibility Result” value [3] was “Sensitive (Antimicrobial wells with pathogen load detected below the control wells (typically >2 cycle thresholds later) may be reported as Sensitive)”. For the same compound, the “Traditional Culture Result” value [4] was “Sensitive” and the “Traditional Culture Result” value [1] was “Sensitive”.
In the case of `CO[C@@]1(NC(=O)Cc2cccs2)C(=O)N2C(C(=O)O)=C(COC(N)=O)CS[C@@H]21` [Cefoxitin], the “Traditional Culture Result” value [5] is reported as “Resistant” and the “Traditional Culture Result” value [1] is reported as “Resistant”.
With `CO/N=C(\C(=O)N[C@@H]1C(=O)N2C(C(=O)O)=C(CSc3nc(=O)c(=O)[nH]n3C)CS[C@H]12)c1csc(N)n1` [Ceftriaxone] the “Traditional Culture Result” value [1] was “Resistant”.
For `O=C(O)c1cn(C2CC2)c2cc(N3CCNCC3)c(F)cc2c1=O` [Ciprofloxacin], the “Traditional Culture Result” value [5] was “Resistant”, the “Ct at Sensitive Breakpoint” value [3] was 12.239 and the “Molecular Antimicrobial Susceptibility Result” value [3] was “Resistant”. For the same compound, the “Traditional Culture Result” value [4] was “Resistant” and the “Traditional Culture Result” value [1] was “Sensitive”.
For `C[C@H]1COc2c(N3CCN(C)CC3)c(F)cc3c(=O)c(C(=O)O)cn1c23` [Levofloxacin], the “Ct at Sensitive Breakpoint” value [3] was 12.853 and the “Molecular Antimicrobial Susceptibility Result” value [3] was “Resistant”.
With `C[C@@H](O)[C@H]1C(=O)N2C(C(=O)O)=C(S[C@@H]3CN[C@H](C(=O)N(C)C)C3)[C@H](C)[C@H]12` [Meropenem] the “Ct at Sensitive Breakpoint” value [3] was 12.404, the “Molecular Antimicrobial Susceptibility Result” value [3] was “Resistant” and the “Traditional Culture Result” value [4] was “Resistant*”. For the same compound, the “Traditional Culture Result” value [1] was “Sensitive”.
For `CN[C@H](CC(C)C)C(=O)N[C@H]1C(=O)N[C@@H](CC(N)=O)C(=O)N[C@H]2C(=O)N[C@H]3C(=O)N[C@H](C(=O)N[C@H](C(=O)O)c4cc(O)cc(O)c4-c4cc3ccc4O)[C@H](O)c3ccc(c(Cl)c3)Oc3cc2cc(c3O[C@@H]2O[C@H](CO)[C@@H](O)[C@H](O)[C@H]2O[C@H]2C[C@](C)(N)[C@H](O)[C@H](C)O2)Oc2ccc(cc2Cl)[C@H]1O` [Vancomycin], the “Ct at Sensitive Breakpoint” value [2, 6] was 12.950, the “Molecular Antimicrobial Susceptibility Result” value [2, 7] was “Sensitive (Antimicrobial wells with pathogen load detected below the control wells (typically >2 cycle thresholds later) may be reported as Sensitive)” and the “Ct at Sensitive Breakpoint” value [2, 8] was 18.235. For the same compound, the “Molecular Antimicrobial Susceptibility Result” value [2, 9] was “Sensitive (Antimicrobial wells with pathogen load detected below the control wells (typically >2 cycle thresholds later) may be reported as Sensitive)”, the “Ct at Sensitive Breakpoint” value [2, 10] was 18.173 and the “Molecular Antimicrobial Susceptibility Result” value [2, 11] was “Sensitive (Antimicrobial wells with pathogen load detected below the control wells (typically >2 cycle thresholds later) may be reported as Sensitive)”. The “Ct at Sensitive Breakpoint” value [2, 12] was 20.001, the “Molecular Antimicrobial Susceptibility Result” value [2, 13] was “Sensitive (Antimicrobial wells with pathogen load detected below the control wells (typically >2 cycle thresholds later) may be reported as Sensitive)” and the “Ct at Sensitive Breakpoint” value [2, 14] was 8.719. The “Molecular Antimicrobial Susceptibility Result” value [2, 15] was “Resistant” and the “Traditional Culture Result” value [5] was “Resistant”.
With Gentamicin the “Traditional Culture Result” value [5] was “Resistant” and the “Traditional Culture Result” value [1] was “Sensitive”.
With Piperacillin/Tazobactam the “Ct at Sensitive Breakpoint” value [3] was 13.375, the “Molecular Antimicrobial Susceptibility Result” value [3] was “Sensitive (Antimicrobial wells with pathogen load detected below the control wells (typically >2 cycle thresholds later) may be reported as Sensitive)” and the “Traditional Culture Result” value [4] was “Sensitive”. For the same compound, the “Traditional Culture Result” value [1] was “Sensitive”.
With Trimethoprim/Sulfamethoxazole [TMP/SMX] the “Ct at Sensitive Breakpoint” value [2, 6] was 10.79, the “Molecular Antimicrobial Susceptibility Result” value [2, 7] was “Resistant” and the “Ct at Sensitive Breakpoint” value [2, 8] was 10.503. For the same compound, the “Molecular Antimicrobial Susceptibility Result” value [2, 9] was “Resistant”, the “Ct at Sensitive Breakpoint” value [2, 10] was 11.341 and the “Molecular Antimicrobial Susceptibility Result” value [2, 11] was “Resistant”. For the same compound, the “Ct at Sensitive Breakpoint” value [2, 12] was 10.970, the “Molecular Antimicrobial Susceptibility Result” value [2, 13] was “Resistant” and the “Ct at Sensitive Breakpoint” value [2, 14] was 12.620. The “Molecular Antimicrobial Susceptibility Result” value [2, 15] was “Resistant”, the “Traditional Culture Result” value [5] was “Sensitive” and the “Traditional Culture Result” value [1] was “Sensitive”.
